# Measurements published in patent US20190216793A1, “COMPOSITIONS AND METHODS FOR TREATING NEGATIVE SYMPTOMS IN NON-SCHIZOPHRENIC PATIENTS” (Minerva Neurosciences, Inc., priority 2016, published 2019).
# Where two headings read alike, the source gives them in different places.
# Tests used:
# [1] = system: patients with negative symptoms of schizophrenia; details: for improvement of negative symptoms compared to placebo: 32 mg and 64 mg daily doses, 244 schizophrenic patients; for effect size, PANSS Negative Subscale score (pentagonal model), change from baseline vs placebo: schizophrenic patients
# sigma2 [2] = target: T1, sigma2 (Homo sapiens, UniProt Q5BJF2); experiment: in vivo functional studies; set-up: In vivo functional studies have established that MIN-101 is an antagonist; from tissue; host or cells: whole organism in vivo
# sigma2 [3] = target: T1, sigma2; experiment: receptor affinity; type: binding
# [4] = target: 5-hydroxytryptamine-2A (5-HT2A) (Homo sapiens, UniProt P28223); experiment: receptor affinity; type: binding
# α1-adrenergic receptors = experiment: receptor affinity; type: binding
# [5] = QT interval association of metabolite; type: in vivo; details: supra-therapeutic levels
# 5-HT2A receptors = target: T2, 5-HT2A receptors (Homo sapiens, UniProt P28223); experiment: in vivo functional studies
# T2 construct: In vivo functional studies have established that MIN-101 is an antagonist; from tissue; host or cells: whole organism in vivo
# muscarinic receptors = experiment: receptor affinity; type: binding
# histaminergic receptors = experiment: receptor affinity; type: binding
# cholinergic receptors = experiment: receptor affinity; type: binding
# dopaminergic receptors = experiment: receptor affinity; type: binding
# T1 sequence (Q5BJF2 whole entry): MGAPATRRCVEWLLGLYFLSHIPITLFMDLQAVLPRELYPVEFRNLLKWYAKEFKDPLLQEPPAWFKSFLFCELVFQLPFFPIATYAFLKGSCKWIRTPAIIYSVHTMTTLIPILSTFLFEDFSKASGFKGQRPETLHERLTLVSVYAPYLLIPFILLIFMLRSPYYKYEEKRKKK
# 5-hydroxytryptamine-2A (5-HT2A), sequence (P28223 whole entry, species assumed): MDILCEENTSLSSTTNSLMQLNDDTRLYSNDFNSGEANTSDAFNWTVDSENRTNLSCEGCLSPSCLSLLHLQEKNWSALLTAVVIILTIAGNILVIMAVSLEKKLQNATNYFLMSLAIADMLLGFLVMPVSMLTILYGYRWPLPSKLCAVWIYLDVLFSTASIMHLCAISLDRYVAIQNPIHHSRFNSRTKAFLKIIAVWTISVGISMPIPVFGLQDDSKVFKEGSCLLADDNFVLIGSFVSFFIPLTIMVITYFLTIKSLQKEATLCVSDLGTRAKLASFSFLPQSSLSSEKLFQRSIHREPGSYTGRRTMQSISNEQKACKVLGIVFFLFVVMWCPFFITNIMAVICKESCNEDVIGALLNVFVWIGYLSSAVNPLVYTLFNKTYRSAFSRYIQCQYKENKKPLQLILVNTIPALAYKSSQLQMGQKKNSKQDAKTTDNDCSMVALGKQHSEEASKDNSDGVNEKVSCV
# T2 sequence (P28223 whole entry): as the sequence (P28223 whole entry, species assumed) above
smiles,measurement,setting,value
O=C(CN1CCC(CN2Cc3ccccc3C2=O)CC1)c1ccc(F)cc1 [Compound I],improvement of negative symptoms compared to placebo,[1]; 12 weeks,statistically significant improvement
same,functional activity at sigma2 receptors,sigma2 [2],antagonizes sigma2 activity
same,affinity for sigma2,sigma2 [3],specific affinities
same,affinity for 5-HT2A,[4],specific affinities
same,affinity for α1-adrenergic receptors,α1-adrenergic receptors,lower affinity levels
O=C1c2ccccc2CN1CC1CCN(CC(O)c2ccc(F)cc2)CC1 (stereo not drawn) [BFB-520],effect on QT intervals,[5],prolongation of QT intervals
"Cl.O.O.O=C(CN1CCC(CN2Cc3ccccc3C2=O)CC1)c1ccc(F)cc1 [MIN-101, 2-{1-[2-(4-Fluorophenyl)-2-oxoethyl]piperidin-4-ylmethyl}-2,3-dihydroisoindol-1-one monohydrochloride dihydrate]",improvement of negative symptoms compared to placebo,[1]; 12 weeks,statistically significant benefit
same,"effect size, PANSS Negative Subscale score (pentagonal model), change from baseline vs placebo","[1]; 32 mg daily, 12 weeks, p≤0.023",0.45
same,"effect size, PANSS total score vs placebo","[1]; 32 mg daily, 12 weeks, not significant",0.35
same,"effect size, PANSS three factors negative symptoms subscale vs placebo","[1]; 32 mg daily, 12 weeks, p≤0.006",0.55
same,"effect size, PANSS Negative Subscale score (pentagonal model), change from baseline vs placebo","[1]; 64 mg daily, 12 weeks, p≤0.003",0.57
same,"effect size, PANSS three factors negative symptoms subscale vs placebo","[1]; 64 mg daily, 12 weeks, p≤0.001",0.70
same,"effect size, PANSS total score vs placebo","[1]; 64 mg daily, 12 weeks, p≤0.003",0.59
same,positive symptoms during the trial,[1]; 12-week trial,remained stable
same,effect on negative symptoms measured using the BNSS total score,"[1]; both doses (32 mg and 64 mg daily), 12 weeks",Improvement in negative symptoms
same,"incidence and types of side effects, MIN-101 group vs placebo group","[1]; human, in vivo",did not differ significantly
same,metabolic adverse effects,"[1]; human, in vivo",no metabolic adverse effects
same,prolactin elevation,"[1]; human, in vivo",no prolactin elevation
same,functional activity at sigma2 receptors,sigma2 [2],antagonist
same,functional activity at 5-HT2A receptors,5-HT2A receptors,antagonist
same,affinity for muscarinic receptors,muscarinic receptors,very low or no affinity
same,affinity for histaminergic receptors,histaminergic receptors,very low or no affinity
same,affinity for cholinergic receptors,cholinergic receptors,very low or no affinity
same,affinity for dopaminergic receptors,dopaminergic receptors,very low or no affinity
